In patent publication US9987256B2, “CFTR corrector for the treatment of genetic disorders affecting striated muscle” (UNIVERSITA' DEGLI STUDI DI PADOVA, priority 2012, dated 2018):
Substitutions are numbered along the chain they refer to.

How the values were obtained:
[1] = biological target: T1, D97G mutant of alpha-sarcoglycan (Homo sapiens, UniProt Q16586, D97G); assay: Western blot rescue of D97G mutant of alpha-sarcoglycan in HEK293 cell model; type: cell-based; conditions: FIG. 7; HEK293, 24 hours; E 10 μM, H 15 μM, I 10 μM, Q 10 μM, F 10 μM, R 5 μM, S 15 μM, T 15 μM, A 2 μM; relative to wild type
T1 construct: expressed in transfected cells; host or cells: HEK293
T1 sequence (Q16586 24-387 D97G): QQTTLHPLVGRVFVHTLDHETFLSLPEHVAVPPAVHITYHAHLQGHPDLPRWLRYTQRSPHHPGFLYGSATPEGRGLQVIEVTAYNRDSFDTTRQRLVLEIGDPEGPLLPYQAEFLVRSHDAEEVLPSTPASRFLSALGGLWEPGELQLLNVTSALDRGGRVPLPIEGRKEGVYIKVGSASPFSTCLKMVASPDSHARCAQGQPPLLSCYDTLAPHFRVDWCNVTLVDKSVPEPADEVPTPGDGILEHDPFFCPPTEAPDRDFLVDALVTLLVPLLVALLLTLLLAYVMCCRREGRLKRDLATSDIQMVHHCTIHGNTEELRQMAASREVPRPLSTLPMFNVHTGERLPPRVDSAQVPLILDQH
Description: (§1) HEK293 cells expressing different α-SG mutants have been treated with the Compounds A, B, C, D, E, F, H, I, Q, R, S and T according to protocols developed in CF studies [Loo and Clarke 2011; Becq et al 2011, Pedemonte et al 2005; Wang et al 2006]. Concentration and time-dependent recovery of treated mutants have been evaluated by Western blotting. The proteasome inhibitor MG132, at the concentration of 10 μM, or DMSO at 1‰ concentration, have been used as positive and negative control, respectively.
In FIG. 7 is shown the content of α-sarcoglycan protein present in HEK cells transfected with the D97G mutant of α-SG treated for 24 hours with either Compound E 10 μM, Compound H 15 μM, Compound I 10 μM, Compound Q 10 μM, Compound F 10 μM, Compound R 5 μM, Compound S 15 μM, Compound T 15 μM, Compound A 2 μM, or DMSO at 1‰ concentration, used as negative control, are shown. Cells expressing the wild type form of α-sarcoglycan have been used for comparison. At the end of treatments, cells were lysed and total proteins resolved by SDS-PAGE. Western blotting has been performed by using α-SG specific antibody and β-actin specific antibody, used to normalize loaded proteins. The expression of α-SG in different samples has been determined by densitometric analysis of western blotting experiments and indicated as percentage of the protein present in cells expressing the wild type form of α-sarcoglycan. […] The compounds tested induce the recovery of the D97G mutant that in some cases reached the level present in HEK cells expressing the wild type protein.

[2] = biological target: T2, R98H mutant of alpha-sarcoglycan (Homo sapiens, UniProt Q16586, R98H); assay: Western blot rescue of R98H mutant of alpha-sarcoglycan in HEK293 cell model; type: cell-based; conditions: HEK293, 24 hours; for alpha-sarcoglycan protein level (western blot, densitometry), rescue of R98H mutant: A 2 μM
T2 construct: expressed in transfected cells; host or cells: HEK293
T2 sequence (Q16586 24-387 R98H): T1 sequence (Q16586 24-387 D97G) with G74D, R75H
Description: as §1
In FIG. 1 the result obtained by treating cells expressing the R98H mutant of α-SG for 24 hours with Compound C 5 μM, Compound B 10 μM, Compound E 10 μM, Compound F 10 μM, Compound A 2 μM, Compound D 10 μM are shown. At the end of treatments, cells were lysed and total proteins resolved by SDS-PAGE. Western blotting has been performed by using α-SG specific antibody and β-actin specific antibody, used to normalize loaded proteins (in FIG. 1, upper panel, a representative experiment is shown). The expression of α-SG in different samples has been determined by densitometric analysis of the western blotting experiments and indicated as percentage of the protein present in cells expressing the R98H mutant treated with DMSO (negative control).
In FIG. 4 the result obtained by treating cells expressing the R98H mutant of α-SG for 24 hours with either Compound H 15 μM, Compound I 10 μM, Compound T 15 μM, Compound A 2 μM, or DMSO at 1‰ concentration, used as negative control, are shown. Cells expressing the wild type form of α-sarcoglycan have been used for comparison. At the end of treatments, cells were lysed and total proteins resolved by SDS-PAGE. Western blotting has been performed by using α-SG specific antibody and β-actin specific antibody, used to normalize loaded proteins (in upper panel of FIG. 4, a representative experiment is shown). The expression of α-SG in different samples has been determined by densitometric analysis of the western blotting experiments and indicated as percentage of the protein present in cells expressing the wild type form of α-sarcoglycan. […] The compounds tested induced the recovery of the R98H mutant to levels that in some cases were even greater than those present in HEK cells expressing the wild type protein.
(§2) In FIG. 5 the result obtained by treating cells expressing the R98H mutant of α-SG for 24 hours with either increasing concentration of Compound R (1, 2.5, 5 μM) or DMSO at 1‰ concentration, used as negative control, are shown. Cells expressing the wild type form of α-sarcoglycan have been used for comparison. At the end of treatments, cells were lysed and total proteins resolved by SDS-PAGE. Western blotting has been performed by using α-SG specific antibody and β-actin specific antibody, used to normalize loaded proteins (in upper panel of FIG. 5, a representative experiment is shown). The expression of α-SG in different samples has been determined by densitometric analysis of western blotting experiments and indicated as percentage of the protein present in cells expressing the wild type form of α-sarcoglycan.
as §2, with “6” for “5”, “Q (5, 10 μM), increasing concentration of Compound S (10, 15” for “R (1, 2.5, 5”, “1% o” for “1‰”, “6,” for “5,”

[3] = FIG. 6, Compound Q 5, 10 μM, Compound S 10, 15 μM
[4] = FIG. 6, highest concentrations (Q 10 μM, S 15 μM)
[5] = FIG. 4, H 15 μM, I 10 μM, T 15 μM, relative to cells expressing wild type
[6] = FIG. 1, C 5 μM, B 10 μM, E 10 μM, F 10 μM, D 10 μM, relative to R98H cells treated with DMSO

Row | Structure (SMILES) | alpha-sarcoglycan protein level (western blot, densitometry), rescue of D97G mutant [1] | alpha-sarcoglycan protein level (western blot, densitometry), rescue of R98H mutant [2, 5] | alpha-sarcoglycan protein level (western blot, densitometry), rescue of R98H mutant [2, 6] | also measured
1 | CC(=O)c1cccc(Nc2nc(-c3sc(NC(=O)c4ccccc4)nc3C)cs2)c1 [Compound Q, N-(2-(3-acetylphenylamino)-4′-methyl-4,5′-bithiazol-2′-yl)-benzamide] | promote the rescue | – | – | alpha-sarcoglycan protein level, dose dependence of R98H mutant recovery [2, 3]: dose dependent recovery; alpha-sarcoglycan protein level of R98H mutant versus wild type protein [2, 4]: reached the level of the wild type protein
2 | C=Cc1ccc(-c2csc(Nc3ccccc3)n2)cc1 [Compound S, N-phenyl-4-(4-vinylphenyl)thiazol-2-amine] | promote the rescue | – | – | alpha-sarcoglycan protein level, dose dependence of R98H mutant recovery [2, 3]: dose dependent recovery; alpha-sarcoglycan protein level of R98H mutant versus wild type protein [2, 4]: reached the level of the wild type protein
3 | Cc1cc(C)c2c(C)cc(Nc3ccccc3)nc2c1 [Compound H, 4,5,7-trimethyl-N-phenylquinolin-2-amine] | promote the rescue | promote the rescue | – | –
4 | O=S(=O)(c1ccc(Cl)cc1)N1CCN(c2ccnc3cc(Cl)ccc23)CC1 [Compound F, 7-chloro-4-(4-(4-chlorophenylsulfonyl)piperazin-1-yl)quinoline] | promote the rescue | – | promote the rescue | –
5 | Cc1cc(Nc2ccc(Br)cc2)nc2ccccc12 [Compound I, N-(4-bromophenyl)-4-methylquinolin-2-amine] | promote the rescue | promote the rescue | – | –
6 | COc1ccc(Cl)cc1Nc1nc(-c2sc(NC(=O)C(C)(C)C)nc2C)cs1 [Compound A, N-(2-(5-chloro-2-methoxyphenylamino)-4′-methyl-4,5′-bithiazol-2′-yl)pivalamide] | promote the rescue | promote the rescue | promote the rescue | –
7 | COc1ccc(Cl)cc1Nc1nc(-c2sc(NC(=O)c3ccccc3)nc2C)cs1 [Compound E, N-[2-(5-Chloro-2-methoxy-phenylamino)-4′-methyl-[4,5′]bithiazolyl-2′-yl]-benzamide] | promote the rescue | – | promote the rescue | –
8 | COc1ccccc1Nc1nc(-c2sc(NC(=O)c3ccccc3)nc2C)cs1 [Compound R, N-(2-(2-methoxyphenylamino)-4′-methyl-4,5′-bithiazol-2′-yl)-benzamide] | promote the rescue | – | – | alpha-sarcoglycan protein level, dose dependence of R98H mutant recovery ([2]; FIG. 5, Compound R 1, 2.5, 5 μM): dose dependent recovery; alpha-sarcoglycan protein level of R98H mutant versus wild type protein ([2]; FIG. 5, highest concentration (5 μM)): reached the level of the wild type protein
9 | COc1ccc2nc(Nc3nc(=O)c(C)c(C)[nH]3)nc(C)c2c1 [Compound T, 2-(6-methoxy-4-methylquinazolin-2-ylamino)-5,6-dimethylpyrimidin-4(1H)-one] | promote the rescue | promote the rescue | – | –
